Experimental findings from paper PMC6556873, “Rapid Covalent-Probe Discovery by Electrophile-Fragment Screening” (Journal of the American Chemical Society, 2019) are described below.

The structures appear in SMILES notation. Like-named read-outs stand apart in the source and are kept apart here.

The target of data set [1] is T1, OTUB2 (OTUB2A) (Homo sapiens, UniProt Q96DC9).
T1 construct: full length residues 1-234, E. coli BL21(DE3)-R3, His tag removed by TEV, construct 27312 Da
T1 sequence (Q96DC9 1-234): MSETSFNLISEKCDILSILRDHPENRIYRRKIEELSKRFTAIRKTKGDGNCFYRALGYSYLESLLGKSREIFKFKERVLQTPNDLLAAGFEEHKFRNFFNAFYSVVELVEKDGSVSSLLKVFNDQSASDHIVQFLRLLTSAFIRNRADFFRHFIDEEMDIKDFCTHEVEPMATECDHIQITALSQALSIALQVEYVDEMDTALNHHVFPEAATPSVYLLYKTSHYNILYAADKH
Also noted: Intact protein LC/MS covalent labelling, fragments in pools of five, 200 uM each, 4 °C. The settings on record: 24 h, 4 °C, pool of five; 200 µM; covalent.

Data set [2] deals with T2, NNMT (hNNMT) (Homo sapiens, UniProt P40261).
T2 construct: wild type, N-terminal His6 tag kept (no cleavage described), E. coli, construct 31248 Da
T2 sequence (P40261 1-264): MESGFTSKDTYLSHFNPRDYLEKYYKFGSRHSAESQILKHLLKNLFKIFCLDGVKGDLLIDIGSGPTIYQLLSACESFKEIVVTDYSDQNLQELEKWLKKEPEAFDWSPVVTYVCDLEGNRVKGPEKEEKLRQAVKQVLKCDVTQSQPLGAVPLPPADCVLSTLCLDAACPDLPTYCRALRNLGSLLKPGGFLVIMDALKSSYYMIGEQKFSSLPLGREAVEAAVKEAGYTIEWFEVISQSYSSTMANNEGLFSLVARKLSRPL
Set-up: Intact protein LC/MS covalent labelling, fragments in pools of five, 200 uM each, 4 °C. The note with it: 24 h, 4 °C, pool of five; 200 µM; covalent.

Data set [3] concerns the target T3, BSA (Bos taurus, UniProt P02769).
T3 construct: gene ALB
Set-up: Intact protein LC/MS covalent labelling, fragments in pools of five, 200 uM each, 4 °C. The settings on record: 24 h, 4 °C, pool of five; 200 µM; covalent.

In data set [4] the target is T4, NUDT7 (Homo sapiens, UniProt P0C024).
T4 construct: residues 14-235, E. coli, pNIC28-Bsa4, N-terminal His6 tag removed by TEV, construct 26672 Da
T4 sequence (P0C024 14-235): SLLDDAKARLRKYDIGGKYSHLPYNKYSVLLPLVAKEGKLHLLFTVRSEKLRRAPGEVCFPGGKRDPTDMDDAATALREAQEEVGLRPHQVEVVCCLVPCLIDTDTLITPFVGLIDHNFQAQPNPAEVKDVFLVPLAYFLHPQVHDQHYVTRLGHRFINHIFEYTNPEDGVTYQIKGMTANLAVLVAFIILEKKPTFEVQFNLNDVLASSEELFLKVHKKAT
Also noted: Intact protein LC/MS covalent labelling, fragments in pools of five, 200 uM each, 4 °C. The settings on record: 24 h, 4 °C, pool of five; 200 µM; covalent.

Data set [5] deals with T5, PCAF (Homo sapiens, UniProt Q92831).
T5 construct: gene KAT2B
T5 sequence (Q92831 whole entry): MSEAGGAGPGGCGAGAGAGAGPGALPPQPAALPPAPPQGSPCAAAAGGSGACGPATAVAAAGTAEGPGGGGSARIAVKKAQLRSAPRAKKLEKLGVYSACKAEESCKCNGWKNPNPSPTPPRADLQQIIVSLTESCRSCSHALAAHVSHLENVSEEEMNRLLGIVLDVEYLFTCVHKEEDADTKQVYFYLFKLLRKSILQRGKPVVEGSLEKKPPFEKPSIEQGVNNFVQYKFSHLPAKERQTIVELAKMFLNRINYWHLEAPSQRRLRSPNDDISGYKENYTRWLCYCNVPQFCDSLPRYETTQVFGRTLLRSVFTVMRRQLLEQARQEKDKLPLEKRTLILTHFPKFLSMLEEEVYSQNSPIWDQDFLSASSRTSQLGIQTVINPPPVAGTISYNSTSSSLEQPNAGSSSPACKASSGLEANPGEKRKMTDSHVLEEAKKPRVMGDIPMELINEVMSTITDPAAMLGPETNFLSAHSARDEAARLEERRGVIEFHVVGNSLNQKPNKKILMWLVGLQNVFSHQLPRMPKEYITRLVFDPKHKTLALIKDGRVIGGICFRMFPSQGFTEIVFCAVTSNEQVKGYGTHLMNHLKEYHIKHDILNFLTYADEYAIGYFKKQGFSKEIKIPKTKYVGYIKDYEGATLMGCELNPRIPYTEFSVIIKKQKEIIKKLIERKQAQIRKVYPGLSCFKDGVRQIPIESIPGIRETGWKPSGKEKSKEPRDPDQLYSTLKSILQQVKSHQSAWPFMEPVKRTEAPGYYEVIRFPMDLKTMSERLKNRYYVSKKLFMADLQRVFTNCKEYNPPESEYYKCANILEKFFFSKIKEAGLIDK
Also noted: Intact protein LC/MS covalent labelling, fragments in pools of five, 200 uM each, 4 °C. The settings on record: 24 h, 4 °C, pool of five; 200 µM; covalent.

The nature of data set [6]: in vitro. The settings on record: human, ccd841 cells. Also noted: species or system HB2, HEK293.
Data set [7] can be described thus: in vitro. The note with it: human, hb2 cells, read-out: HB-2 Cells Viability (%). Set-up: species or system CCD841, HEK293.
A short description of data set [8]: in vitro. Set-up: species or system HB2, CCD841. The note with it: human, hek293 cells.

T3 sequence (P02769 whole entry): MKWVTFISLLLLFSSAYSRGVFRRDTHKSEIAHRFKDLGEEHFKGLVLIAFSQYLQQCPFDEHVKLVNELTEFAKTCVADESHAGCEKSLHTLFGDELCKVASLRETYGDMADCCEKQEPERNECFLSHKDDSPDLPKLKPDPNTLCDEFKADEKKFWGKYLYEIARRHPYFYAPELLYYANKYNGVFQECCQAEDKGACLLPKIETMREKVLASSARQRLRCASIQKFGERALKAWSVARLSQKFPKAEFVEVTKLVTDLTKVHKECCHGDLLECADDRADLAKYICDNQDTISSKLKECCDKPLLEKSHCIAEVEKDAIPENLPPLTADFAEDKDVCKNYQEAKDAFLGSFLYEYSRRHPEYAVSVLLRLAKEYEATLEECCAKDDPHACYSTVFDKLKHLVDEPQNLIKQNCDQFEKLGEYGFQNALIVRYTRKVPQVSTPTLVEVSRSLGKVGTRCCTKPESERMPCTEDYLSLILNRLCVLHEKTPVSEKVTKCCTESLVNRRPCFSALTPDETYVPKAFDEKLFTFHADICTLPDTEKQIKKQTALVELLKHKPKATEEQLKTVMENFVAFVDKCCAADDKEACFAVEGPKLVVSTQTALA

Consider `C=CC(=O)N(C)C1CCCCNC1=O` (centres unmarked) [PCM-0102484], for which, in data set [1], the OTUB2 is given as 0.11. Besides, in data set [2], the NNMT is 0. This compound also registered a BSA in data set [3] of 0. The compound further showed an NUDT7 in data set [4] of 0. For the same compound, the PCAF in data set [5] was determined as 0. In addition, the viability (in general, a read-out of living cells in per cent, often relative to untreated cells) at 48 h, 10 µM in data set [6] was 101%; in data set [7], 95.7%; in data set [8] it was 122%.
`CC1CCCN(C(=O)CCl)C1` (centres unmarked) [PCM-0102867] displayed an OTUB2 in data set [1] of 0. Also, the NNMT in data set [2] came to 0. Besides, the BSA in data set [3] turned out to be 0. The compound further returned an NUDT7 in data set [4] of 0. The compound also gave a PCAF in data set [5] of 0. Further, the viability at 48 h, 10 µM in data set [6] was 104%; in data set [7], 102%; in data set [8] it was 103%.
Regarding `COc1ccc(Cl)cc1C(=O)NNC(=O)CCl` [PCM-0102763], the OTUB2 in data set [1] worked out at 0.64. Further, in data set [2], the NNMT came out at 0. The BSA in data set [3] was determined as 0. Also, the NUDT7 in data set [4] was 0.1. Besides, in data set [5], the PCAF came out at 0. Further, the viability at 48 h, 10 µM in data set [6] is 13.4%; in data set [7], 73.6%; in data set [8] it was 25.1%.
Regarding `CC(=O)c1ccccc1NC(=O)CCl` [PCM-0102282], in data set [1], the OTUB2 is on record as 0. Further, the NNMT in data set [2] worked out at 0.19. This compound also gave a BSA in data set [3] of 0. This compound also had an NUDT7 in data set [4] of 0. This compound gave a PCAF in data set [5] of 0. Further, the viability at 48 h, 10 µM in data set [6] was determined as 90.3%; in data set [7], 102%; in data set [8], 87.2%.
`O=C(CCl)Nc1ccc2c(c1)CCC2` [PCM-0102662] yielded an OTUB2 in data set [1] of 0.14. The NNMT in data set [2] is 0.22. In data set [3], this compound yielded a BSA of 0. For the same compound, the NUDT7 in data set [4] is listed as 0.12. This compound also came in with a PCAF in data set [5] of 0. Further, the figures for the viability at 48 h, 10 µM in data set [6], in data set [7] and in data set [8] were 56.2%, 16.3% and 4.7%, respectively.
The compound `O=C(CCl)N1CCN(c2ccccc2Cl)CC1` [PCM-0102297] returned an OTUB2 in data set [1] of 0. The compound also displayed an NNMT in data set [2] of 0.15. Moreover, the BSA in data set [3] stood at 0. Also, the NUDT7 in data set [4] turned out to be 0.35. The PCAF in data set [5] is 0. For the same compound, the viability at 48 h, 10 µM in data set [6] turned out to be 52%; in data set [7], 2.3%; in data set [8], 3.9%.
In turn, `O=C(CCl)Nc1nnn[nH]1` [PCM-0102778] registered an OTUB2 in data set [1] of 0.3. The NNMT in data set [2] is on record as 0. Besides, the BSA in data set [3] amounted to 0. The same compound gave an NUDT7 in data set [4] of 0. In data set [5], this compound yielded a PCAF of 0. Also, the viability at 48 h, 10 µM is 102% in data set [6], 102% in data set [7] and 120% in data set [8].
On to `Cl.O=C(CCl)N1CCN(c2ccc(F)cc2)CC1` [PCM-0102905], for which the OTUB2 in data set [1] was determined as 0.07. The compound further had an NNMT in data set [2] of 0.2. The BSA in data set [3] is listed as 0. Further, in data set [4], the NUDT7 is given as 0.1. This compound showed a PCAF in data set [5] of 0. In addition, the figures for the viability at 48 h, 10 µM in data set [6], in data set [7] and in data set [8] were 77%, 24.7% and 56.8%, respectively.
As for `N#Cc1ccc(C(=O)NNC(=O)CCl)cc1` [PCM-0102892], in data set [1], the OTUB2 was 0.14. The compound further registered an NNMT in data set [2] of 0. Moreover, the BSA in data set [3] is given as 0. In addition, in data set [4], the NUDT7 came to 0. For the same compound, in data set [5], the PCAF is 0. The viability at 48 h, 10 µM in data set [6] turned out to be 85.9%; in data set [7], 86.2%; in data set [8], 103%.
In data set [1], `COc1ccc2nc(NC(=O)CCl)sc2c1` [PCM-0102330] displayed an OTUB2 of 0. The NNMT in data set [2] turned out to be 0.71. This compound also yielded a BSA in data set [3] of 0. In data set [4], the NUDT7 worked out at 1. In data set [5], this compound registered a PCAF of 0. The viability at 48 h, 10 µM in data set [6] came to 44.6%; in data set [7], 32.7%; in data set [8], 39.7%.
